# Laboratory results taken from the supplement of paper PMC11208160.
# Assay: recombinant UMI read abundance after kanamycin selection (control-corrected) (log10(CPM+1)); higher = more efficient recombination; extreme values may be limits of the assay; sequences stand for … in AGTGCAGAGAAAATCGGCCAGTTTTCTCTGCCTGCAGTCCGCATGCCGTGGGACCCCTTGGGTTCTAACCTGTTGCCTAGATTTATGCAGCGGACTGCCTTTCTCCCAAAGTGATAAACCGG…AGGTTGGTTTCACT; site = the 11-nt donor
# Method in brief: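 Two replicates each of selected and unselected plating were used in this pooled Escherichia coli screen of donor and donor-binding-loop pairs for the IS621 bridge recombinase. Selection was with IPTG (0.07 mM) and kanamycin. Counts of recombinant UMIs, amplified across the donor–target junction, were converted to CPM, averaged, scaled by control-derived factors and reported as log10(CPM+1).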
# 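Further: IS621 bridge recombinase in Escherichia coli cells against a fixed T5 target plasmid.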
row,Sequence,recombinant UMI read abundance (log10)
1,GTGGGTTCATGGACCGGTTTTCCCGGTAATCCGTATTTGCA (site GTGGGTTCTTG),2.55
2,GTGGTTCCATGGACCGGTTTTCCCGGTAATCCGTATTTGGT (site GTAGTTCCTAC),0.553
3,GTGGTTCCATGGACCGGTTTTCCCGGTAATCCGTATTTGGT (site GTCGTTCCTAC),0
4,GTGGTTCCATGGACCGGTTTTCCCGGTAATCCGTATTTGGT (site GTGGTTCCTAC),0.0114
5,GTGGTTCCATGGACCGGTTTTCCCGGTAATCCGTATTTGGT (site GTTGTTCCTAC),0.0137
6,GTGTATGCATGGACCGGTTTTCCCGGTAATCCGTATTTGGT (site GTGAATGCTAC),0.483
7,GTGTATGCATGGACCGGTTTTCCCGGTAATCCGTATTTGGT (site GTGCATGCTAC),1.24
8,GTGTATGCATGGACCGGTTTTCCCGGTAATCCGTATTTGGT (site GTGGATGCTAC),0
9,GTGTATGCATGGACCGGTTTTCCCGGTAATCCGTATTTGGT (site GTGTATGCTAC),2
10,GTGTCATCATGGACCGGTTTTCCCGGTAATCCGTATTTGCA (site GTGTCATCTTG),0.804
11,GTGTTGCCATGGACCGGTTTTCCCGGTAATCCGTATTTGGC (site GTGTTGCCTGC),0
12,GTGTTTACATGGACCGGTTTTCCCGGTAATCCGTATTTGCG (site GTGTTTACTCG),1.66
13,GTTAACTCATGGACCGGTTTTCCCGGTAATCCGTATTTGAA (site GTTAACTCTTT),1.85
14,GTTAAGGCATGGACCGGTTTTCCCGGTAATCCGTATTTGAG (site GTTAAGGCTCT),1.41
15,GTTACAACATGGACCGGTTTTCCCGGTAATCCGTATTTGGC (site GTTAAAACTGC),0.0108
16,GTTACAACATGGACCGGTTTTCCCGGTAATCCGTATTTGGC (site GTTACAACTGC),0
17,GTTACAACATGGACCGGTTTTCCCGGTAATCCGTATTTGGC (site GTTAGAACTGC),0
18,GTTACAACATGGACCGGTTTTCCCGGTAATCCGTATTTGGC (site GTTATAACTGC),0
19,GTTACGTCATGGACCGGTTTTCCCGGTAATCCGTATTTGTA (site GTTACGTCTTA),1.22

row,Sequence,recombinant UMI read abundance (log10)
1,GTTACTGCATGGACCGGTTTTCCCGGTAATCCGTATTTGCC (site GATACTGCTGG),0
2,GTTACTGCATGGACCGGTTTTCCCGGTAATCCGTATTTGCC (site GCTACTGCTGG),0
3,GTTACTGCATGGACCGGTTTTCCCGGTAATCCGTATTTGCC (site GGTACTGCTGG),0.914
4,GTTACTGCATGGACCGGTTTTCCCGGTAATCCGTATTTGCC (site GTTACTGCTGG),1.83
5,GTTAGCTCATGGACCGGTTTTCCCGGTAATCCGTATTTGTG (site GTTAGCTCTCA),0.415
6,GTTAGTACATGGACCGGTTTTCCCGGTAATCCGTATTTGGC (site GTTAGAACTGC),0
7,GTTAGTACATGGACCGGTTTTCCCGGTAATCCGTATTTGGC (site GTTAGCACTGC),0
8,GTTAGTACATGGACCGGTTTTCCCGGTAATCCGTATTTGGC (site GTTAGGACTGC),0
9,GTTAGTACATGGACCGGTTTTCCCGGTAATCCGTATTTGGC (site GTTAGTACTGC),0.861
10,GTTATACCATGGACCGGTTTTCCCGGTAATCCGTATTTGCT (site GTTATACCTAG),0
11,GTTATAGCATGGACCGGTTTTCCCGGTAATCCGTATTTGTC (site GTTATAGCTGA),2.53
12,GTTCCAACATGGACCGGTTTTCCCGGTAATCCGTATTTGTA (site GATCCAACTTA),0.0199
13,GTTCCAACATGGACCGGTTTTCCCGGTAATCCGTATTTGTA (site GCTCCAACTTA),0.287
14,GTTCCAACATGGACCGGTTTTCCCGGTAATCCGTATTTGTA (site GGTCCAACTTA),0.0991
15,GTTCCAACATGGACCGGTTTTCCCGGTAATCCGTATTTGTA (site GTTCCAACTTA),0.437
16,GTTCCTACATGGACCGGTTTTCCCGGTAATCCGTATTTGCT (site GTTCCTACTAG),0.774
17,GTTCGAACATGGACCGGTTTTCCCGGTAATCCGTATTTGGC (site GTTAGAACTGC),0
18,GTTCGAACATGGACCGGTTTTCCCGGTAATCCGTATTTGGC (site GTTCGAACTGC),0.869
19,GTTCGAACATGGACCGGTTTTCCCGGTAATCCGTATTTGGC (site GTTGGAACTGC),0

row,Sequence,recombinant UMI read abundance (log10)
1,GTTCGAACATGGACCGGTTTTCCCGGTAATCCGTATTTGGC (site GTTTGAACTGC),0
2,GTTCGACCATGGACCGGTTTTCCCGGTAATCCGTATTTGTG (site GTTCGACCTCA),0.0309
3,GTTCGAGCATGGACCGGTTTTCCCGGTAATCCGTATTTGCA (site ATTCGAGCTTG),1.31
4,GTTCGAGCATGGACCGGTTTTCCCGGTAATCCGTATTTGCA (site CTTCGAGCTTG),0.898
5,GTTCGAGCATGGACCGGTTTTCCCGGTAATCCGTATTTGCA (site GATCGAGCTTG),0.258
6,GTTCGAGCATGGACCGGTTTTCCCGGTAATCCGTATTTGCA (site GCTCGAGCTTG),1.25
7,GTTCGAGCATGGACCGGTTTTCCCGGTAATCCGTATTTGCA (site GGTCGAGCTTG),0.00484
8,GTTCGAGCATGGACCGGTTTTCCCGGTAATCCGTATTTGCA (site GTACGAGCTTG),1.97
9,GTTCGAGCATGGACCGGTTTTCCCGGTAATCCGTATTTGCA (site GTCCGAGCTTG),1.29
10,GTTCGAGCATGGACCGGTTTTCCCGGTAATCCGTATTTGCA (site GTGCGAGCTTG),0.215
11,GTTCGAGCATGGACCGGTTTTCCCGGTAATCCGTATTTGCA (site GTTAGAGCTTG),0.651
12,GTTCGAGCATGGACCGGTTTTCCCGGTAATCCGTATTTGCA (site GTTCAAGCTTG),1.8
13,GTTCGAGCATGGACCGGTTTTCCCGGTAATCCGTATTTGCA (site GTTCCAGCTTG),0.541
14,GTTCGAGCATGGACCGGTTTTCCCGGTAATCCGTATTTGCA (site GTTCGAACTTG),0.806
15,GTTCGAGCATGGACCGGTTTTCCCGGTAATCCGTATTTGCA (site GTTCGACCTTG),0.0101
16,GTTCGAGCATGGACCGGTTTTCCCGGTAATCCGTATTTGCA (site GTTCGAGCTAG),0
17,GTTCGAGCATGGACCGGTTTTCCCGGTAATCCGTATTTGCA (site GTTCGAGCTCG),0.461
18,GTTCGAGCATGGACCGGTTTTCCCGGTAATCCGTATTTGCA (site GTTCGAGCTGG),0.789
19,GTTCGAGCATGGACCGGTTTTCCCGGTAATCCGTATTTGCA (site GTTCGAGCTTA),1.19
